In patent publication US5891924A, “Curcumin (diferuloylmethane) inhibition of NFκB activation” (Research Development Foundation, priority 1996, dated 1999):

Experiments:
NF-κB [1] = experiment: TNF-dependent NF-κB activation by electrophoretic mobility shift assay in ML-1a cells; type: cell-based, human
NF-κB [2] = experiment: Binding of NF-κB to DNA, nuclear extracts from TNF-pre-activated cells incubated with curcumin, EMSA; parameters: species or system human; conditions: nuclear extracts from TNF-pre-activated cells incubated with curcumin 15 minutes, FIG. 2b
NF-κB [3] = experiment: PMA- and H2O2-mediated activation of NF-κB in ML-1a cells, EMSA; type: cell-based, human; conditions: curcumin 50 μM 60 minutes preincubation, FIG. 3
AP-1 = experiment: EMSA of AP-1 transcription factor in curcumin-treated cells; type: cell-based, human; conditions: cells treated with different concentrations of curcumin 60 minutes at 37° C., FIG. 4
Sp1 = experiment: EMSA of Sp1 transcription factor in curcumin-treated cells; type: cell-based, human; conditions: cells treated with different concentrations of curcumin 60 minutes at 37° C., FIG. 4
NF-κB [4] = experiment: Effect of reducing agents DTT and DMP on inhibition of TNF-induced NF-κB activation, EMSA; type: cell-based, human; conditions: DTT 100 μM or DMP 100 μM, curcumin 50 μM or PAO 2.4 μM, 60 minutes, then 0.1 nM TNF 30 minutes, FIG. 5
IκBα = experiment: Western blot for TNF-induced phosphorylation and degradation of IκBα in ML-1a cells; type: cell-based, human; conditions: curcumin 50 μM 60 minutes pretreatment, TNF 0.1 nM different times, cytosolic fraction, FIG. 6A
Method: ML-1a (2×10^6 /ml) pretreated (for 60 minutes at 37° C.) with or without curcumin (50 μM) were incubated for different times with TNF (0.1 nM), and then assayed for IκBα (FIG. 6A) and for p65 (FIG. 6B) in cytosolic fractions by western blot analysis as described below. ML-1a (2×10^6 /ml) pretreated (for 60 minutes at 37° C.) with curcumin were incubated with TNF (0.1 nM) for 30 minutes. Nuclear and cytoplasmic extracts were assayed by western blot analysis for p65. The arbitrary units represent the relative amounts of the respective proteins as described below.
After the NF-κB activation reaction described above, postnuclear extracts were resolved on 10% SDS-polyacrylamide gels for IκBα. To determine p65 levels, nuclear and post nuclear (cytoplasmic) extracts were resolved on 8% SDS-polyacrylamide gels. After the gels, the proteins were electrotransferred to nitrocellulose filters, probed with a rabbit polyclonal antibody against IκBa or against p65, and detected by chemiluminescence (ECL-Amersham) (22). The bands obtained were quantitated using Personal Densitometer Scan v1.30 using Image Quanta software version 3.3 (Molecular Dynamics, Sunnyvale, Calif.).
The translocation of NF-κB to the nucleus is preceded by the phosphorylation and proteolytic degradation of IκBα (26). […]

p65 subunit of NF-κB = experiment: Western blot for p65 level in cytoplasm and nucleus of TNF-treated ML-1a cells; type: cell-based, human

COc1cc(/C=C/C(=O)CC(=O)/C=C/c2ccc(O)c(OC)c2)ccc1O [curcumin, diferuloylmethane]
inhibition of TNF response, pretreatment with curcumin (NF-κB [1]; 20 μM curcumin 60, 30 and 10 minutes prior to TNF 0.1 nM, TNF 30 minutes, FIG. 1b): inhibited only when cells were pretreated | inhibition of TNF response, cotreatment of cells with TNF and curcumin (NF-κB [1]; 20 μM curcumin added at the same time as TNF 0.1 nM, TNF 30 minutes, FIG. 1b): not effective | inhibition of NF-κB activation induced by 10 nM TNF (NF-κB [1]; 50 μM curcumin 60 minutes pretreatment, 10 nM TNF for different times, FIG. 1c): completely inhibit | activation of NF-κB by the compound by itself (NF-κB [1]; ML-1a cells, without TNF, EMSA): did not activate | effect on the ability of NF-κB to bind to the DNA (NF-κB [2]): did not modify | inhibition of hydrogen peroxide-induced activation of NF-κB (NF-κB [3]; H2O2 0.5 mM 30 minutes): completely blocked | inhibition of PMA-induced activation of NF-κB (NF-κB [3]; PMA 25 ng/ml 30 minutes): completely blocked | effect on DNA binding of AP-1 transcription factors (AP-1): down-modulated | effect on the Sp1 transcription factor (Sp1): no effect | reversal by DTT and DMP of the inhibition of TNF-induced NF-κB activation (NF-κB [4]): did not reverse | effect on TNF-induced phosphorylation and degradation of IκBα (IκBα): abolished | effect on TNF-dependent change in nuclear and cytoplasmic p65 levels (translocation of p65 to the nucleus) (p65 subunit of NF-κB; curcumin 50 μM 60 minutes pretreatment, TNF 0.1 nM, FIGS. 6B and 6C): abolished | down-modulation of the cytoplasmic pool of p65 subunit of NF-κB (p65 subunit of NF-κB; curcumin-treated ML-1a cells, western blot): not down-modulated
